Test results taken from ChEMBL document CHEMBL1146970, “Potent blockers of the monocarboxylate transporter MCT1: novel immunomodulatory compounds” (Bioorg Med Chem Lett, 2006).
In brackets after ≈: the same amount, converted by molar mass.

Assay: not given
Details: buffer

Row | Compound | solubility [µg/mL]
1 | CC(C)Cn1c(=O)n(C)c(=O)c2c(SCCCO)n(Cc3cccc4ccccc34)cc21 | 80 (≈ 177 µM)

Assay: physchem
Details: aqueous

Row | Compound | solubility [µg/mL]
2 | CC(C)Cc1nn(C)c(=O)c2c(SCCCO)n(Cc3cccc4ccccc34)cc12 | < 1
3 | CC(C)Cn1c(=O)n(C)c(=O)c2c(C(=O)N3CC[C@@H](O)C3)c(Cc3ccnc4ccccc34)sc21 | 520 (≈ 1060 µM)

Assay: physchem
Details: octanol/water

Row | Compound | logD
4 | CC(C)Cn1c(=O)n(C)c(=O)c2c(SCCCO)c(Cc3ccccc3C(F)(F)F)sc21 | 4.1
5 | CC(C)Cn1c(=O)n(C)c(=O)c2c(SCCCO)n(Cc3cccc4ccccc34)cc21 | 4.4
6 | CC(C)Cc1nn(C)c(=O)c2c(SCCCO)n(Cc3cccc4ccccc34)cc12 | 4.8
7 | CC(C)Cn1c(=O)n(C)c(=O)c2c(SCC(O)CO)c(Cc3ccccc3C(F)(F)F)sc21 (racemic) | > 4.5
8 | CC(C)Cn1c(=O)n(C)c(=O)c2c(C(=O)N3CC[C@@H](O)C3)c(Cc3c[nH]c4ccccc34)sc21 | 2.4
9 | CC(C)Cn1c(=O)n(C)c(=O)c2c(C(=O)N3CC[C@@H](O)C3)c(Cc3cccc4ncccc34)sc21 | 2
10 | CC(C)Cn1c(=O)n(C)c(=O)c2c(C(=O)N3CC[C@@H](O)C3)c(Cc3c[nH]c4ncccc34)sc21 | 1.7
11 | CC(C)Cn1c(=O)n(C)c(=O)c2c(C(=O)N3CC[C@@H](O)C3)c(Cc3ccnc4ccccc34)sc21 | 1.7
12 | CC(C)Cn1c(=O)n(C)c(=O)c2c(S[C@@H]3CC[C@H](O)C3)c(Cc3ccccc3C(F)(F)F)sc21 (racemic) | 4.4
13 | CC(C)Cn1c(=O)n(C)c(=O)c2c(SC3CCC3)c(Cc3ccccc3C(F)(F)F)sc21 | > 3.5
14 | CC(C)Cn1c(=O)n(C)c(=O)c2c(C(=O)N3CCCC3)c(Cc3ccccc3C(F)(F)F)sc21 | 3.8
15 | CC(C)Cn1c(=O)n(C)c(=O)c2c(C(=O)N3CC(C)(O)C3)c(Cc3ccccc3C(F)(F)F)sc21 | 3.2
16 | Cc1nc(Cl)c(Cl)n1Cc1sc2c(c1C(=O)N1CC[C@@H](O)C1)c(=O)n(C)c(=O)n2CC(C)C | 1.6
17 | CC(C)Cn1c(=O)n(C)c(=O)c2c(S[C@@H]3CCC[C@H]3O)c(Cc3ccccc3C(F)(F)F)sc21 (racemic) | 4.2
18 | CNc1nc2ccccc2n1Cc1sc2c(c1C(=O)N1CC[C@@H](O)C1)c(=O)n(C)c(=O)n2CC(C)C | 1.6
19 | CC(C)Cn1c(=O)n(C)c(=O)c2c(C(=O)N3CC[C@@H](O)C3)c(Cc3ccccc3C(F)(F)F)sc21 | 2.7
20 | CC(C)Cn1c(=O)n(C)c(=O)c2c(S(=O)(=O)N3CC[C@@H](O)C3)c(Cc3ccccc3C(F)(F)F)sc21 (racemic) | 3.3
21 | CC(C)Cn1c(=O)n(C)c(=O)c2c(C(=O)N3CC[C@@H](O)C3)c(Cc3cncc4ccccc34)sc21 | 1.7
